These results are taken from patent US20240390487A1, “TLR AGONISTS FOR REDUCING ACTIVATION-INDUCED PD-1 EXPRESSION ON T CELLS AND METHODS OF USE” (WISCONSIN ALUMNI RESEARCH FOUNDATION, priority 2016, published 2024).

The subject of the test is purified OT-1 CD8+ T cells. The experiment in a line: In vitro co-culture / conditioned medium experiments with APC and OT-1 CD8+ T cells. Format: cell-based, mice. As to conditions: purified DC or B cells pre-treated with TLR agonist, SIINFEKL, 24 hours. The procedure: FIGS. 14A-14D. Changes in PD-1 expression following TLR stimulation are mediated by IL-12 secreted from APCs. Panel A: Purified OT-1 T cells (T), B cells (B), or dendritic cells (DC) were activated with SIINFEKL peptide (SEQ ID NO:1, OVA) or with a non-specific peptide (NS) in the presence of either TLR1/2 (TLR1/2) agonist, TLR7 agonist (TLR7), or media alone. After 24 hours, cells were washed and co-cultured with naïve purified OT-1 CD8+ T cells for an additional 24 hours and then assessed for expression of the indicated surface receptors (4-1BB, CD3, PD-1, LAG3, CTLA-4, and TIM3) by flow cytometry. Shown is the MFI for each marker, with samples assessed in triplicate. Panel B: Purified DC were stimulated in the presence of TLR1/2 agonist, TLR7 agonist, or media alone. […] After 24 hours, cells were assessed for expression of the indicated surface receptors (4-1BB, PD-1, LAG3, and CTLA-4) by flow cytometry. Shown is mean and standard error of the MFI for each marker, with samples assessed in triplicate. […] Culture supernatant was then evaluated for the presence of IL12 p70 by ELISA. […] After 24 hours, cells were assessed for expression of the indicated surface receptors (4-1BB, PD-1, LAG3, and CTLA-4) by flow cytometry. Shown is mean and standard error of the MFI for each marker, with samples assessed in triplicate and are representative of two similar experiments. […]

With `CCNCc1nc2c(N)nc3ccccc3c2n1CC(C)(C)O` [Gardiquimod], the “PD-1 expression on OT-1 T cells activated with TLR-agonist-treated APC” value is “reduced”.
Turning to Pam3CSK4, the “PD-1 expression on OT-1 T cells activated with TLR-agonist-treated APC” value was “reduced”.
